Reference: the supplement of paper PMC9013687

Assays:
Danio rerio embryo [1] = test: EC10 STC decrease; higher = less potent; conditions: exposure time: 25 h
Protocol: (§1)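 Zebrafish embryos (UFZ-OBI strain) were exposed from 2 hpf for 48 h (2 dpf) or 96 h (4 dpf) at 28 °C; spontaneous tail coiling was scored at 25 hpf. Morphological features from automated image analysis (FishInspector), heart rate and locomotor response were fitted with drc models. Quantal endpoints were dichotomised at 2.5 SD from controls and fitted with a log-logistic model; heart rate, pigmentation and STC were normalised to the replicate control mean. Betamethasone was tested as betamethasone dipropionate, diflorasone as diflorasone diacetate.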

Danio rerio embryo [2] = test: spontaneous tail coiling frequency (coils/min/embryo); higher = more spontaneous movement; conditions: 25 hpf
Protocol: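 Spontaneous tail coilings of zebrafish embryos exposed from 2 hpf were recorded at 24-25 hpf in 1-min videos and detected by a KNIME workflow from grey-value variance. Betamethasone was tested as the dipropionate, diflorasone as the diacetate.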

Danio rerio embryo [3] = test: EC20 Eye-jaw distance_Decrease; higher = less potent; conditions: exposure time: 4 dpf
Protocol: as §1

Danio rerio embryo [4] = test: EC20 Lack of SB; higher = less potent; conditions: exposure time: 4 dpf
Protocol: as §1

Danio rerio embryo [5] = test: EC20 Pericard size_Increase; higher = less potent; conditions: exposure time: 4 dpf
Protocol: as §1

Danio rerio embryo [6] = test: EC10 Any effect; higher = less potent
Protocol: as §1

Danio rerio embryo [7] = conditions: exposure time: 4 dpf
Protocol: as §1

Danio rerio embryo [8] = conditions: exposure time: 4 dpf; remark: listed apart in the source
Protocol: as §1

Danio rerio embryo [9] = test: EC50 Pericard size_Increase; conditions: exposure time: 4 dpf
Protocol: as §1

Danio rerio embryo [10] = test: EC10 Bladder size_Decrease; higher = less potent; conditions: exposure time: 4 dpf
Protocol: as §1

Danio rerio embryo [11] = test: EC20 Pigmentation increase; higher = less potent; conditions: exposure time: 4 dpf
Protocol: as §1

Danio rerio embryo [12] = test: EC10 Body length_Decrease; higher = less potent; conditions: exposure time: 2 dpf
Protocol: as §1

Danio rerio embryo [13] = test: EC10 Pericard size_Increase; higher = less potent; conditions: exposure time: 4 dpf
Protocol: as §1

Danio rerio embryo [14] = test: EC50 Eye-jaw distance_Decrease; conditions: exposure time: 4 dpf
Protocol: as §1

Danio rerio embryo [15] = test: EC10 LMR dark; higher = less potent; conditions: exposure time: 4 dpf
Protocol: as §1

Danio rerio embryo [16] = test: EC20 Heart rate; higher = less potent
Protocol: as §1

Danio rerio embryo [17] = test: EC10 Lack of SB; higher = less potent; conditions: exposure time: 4 dpf
Protocol: as §1

Danio rerio embryo [18] = test: EC20 Bladder size_Decrease; higher = less potent; conditions: exposure time: 4 dpf
Protocol: as §1

Danio rerio embryo [19] = test: EC10 Pigmentation increase; higher = less potent; conditions: exposure time: 4 dpf
Protocol: as §1

Danio rerio embryo [20] = test: EC10 Yolk sac size_Increase; higher = less potent; conditions: exposure time: 4 dpf
Protocol: as §1

Danio rerio embryo [21] = test: EC20 STC decrease; higher = less potent; conditions: exposure time: 25 h
Protocol: as §1

Danio rerio embryo [22] = test system: Danio rerio embryo
Protocol: as §1

Danio rerio embryo [23] = test: EC10 Eye-jaw distance_Decrease; higher = less potent; conditions: exposure time: 4 dpf
Protocol: as §1

Danio rerio embryo [24] = test: EC20 Body length_Decrease; higher = less potent; conditions: exposure time: 2 dpf
Protocol: as §1

Danio rerio embryo [25] = test: EC50 Bladder size_Decrease; conditions: exposure time: 4 dpf
Protocol: as §1

Danio rerio embryo [26] = test: EC20 Any effect; higher = less potent
Protocol: as §1

Danio rerio embryo [27] = test: EC20 Yolk sac size_Increase; higher = less potent; conditions: exposure time: 4 dpf
Protocol: as §1

Danio rerio embryo [28] = test: EC50 Body length_Decrease; conditions: exposure time: 2 dpf
Protocol: as §1

Danio rerio embryo [29] = test: EC10 Heart rate; higher = less potent
Protocol: as §1

Danio rerio embryo [30] = test: EC50 Yolk sac size_Increase; conditions: exposure time: 4 dpf
Protocol: as §1

Danio rerio embryo [31] = test: EC20 LMR dark; higher = less potent; conditions: exposure time: 4 dpf
Protocol: as §1

CNCCC=C1c2ccccc2CCc2ccccc21 [Nortriptyline]
Conditions	EC10 Bladder size Decrease [µM]	EC10 Body length Decrease [µM]	EC10 Eye-jaw distance Decrease [µM]	EC10 LMR dark [µM]	EC10 Lack of SB [µM]	EC10 Pericard size Increase [µM]	EC10 Pigmentation increase [µM]	EC10 STC decrease [µM]	EC10 Yolk sac size Increase [µM]	EC20 Bladder size Decrease [µM]	EC20 Body length Decrease [µM]	EC20 Eye-jaw distance Decrease [µM]	EC20 LMR dark [µM]	EC20 Lack of SB [µM]	EC20 Pericard size Increase [µM]	EC20 Pigmentation increase [µM]	EC20 STC decrease [µM]	EC20 Yolk sac size Increase [µM]	EC50 Bladder size Decrease [µM]	EC50 Body length Decrease [µM]	EC50 Eye-jaw distance Decrease [µM]	EC50 LMR dark [µM]	EC50 Lack of SB [µM]	EC50 Pericard size Increase [µM]	EC50 Yolk sac size Increase [µM]
Danio rerio embryo [1]	–	–	–	–	–	–	–	3.44	–	–	–	–	–	–	–	–	–	–	–	–	–	–	–	–	–
Danio rerio embryo [3]	–	–	–	–	–	–	–	–	–	–	–	18.3	–	–	–	–	–	–	–	–	–	–	–	–	–
Danio rerio embryo [4]	–	–	–	–	–	–	–	–	–	–	–	–	–	4.76	–	–	–	–	–	–	–	–	–	–	–
Danio rerio embryo [5]	–	–	–	–	–	–	–	–	–	–	–	–	–	–	17.8	–	–	–	–	–	–	–	–	–	–
Danio rerio embryo [7]	–	–	–	–	–	–	–	–	–	–	–	–	–	–	–	–	–	–	–	–	–	–	5.07	–	–
Danio rerio embryo [8]	–	–	–	–	–	–	–	–	–	–	–	–	–	–	–	–	–	–	–	–	–	10.3	–	–	–
Danio rerio embryo [9]	–	–	–	–	–	–	–	–	–	–	–	–	–	–	–	–	–	–	–	–	–	–	–	20.4	–
Danio rerio embryo [10]	4.59	–	–	–	–	–	–	–	–	–	–	–	–	–	–	–	–	–	–	–	–	–	–	–	–
Danio rerio embryo [11]	–	–	–	–	–	–	–	–	–	–	–	–	–	–	–	1.83	–	–	–	–	–	–	–	–	–
Danio rerio embryo [12]	–	34	–	–	–	–	–	–	–	–	–	–	–	–	–	–	–	–	–	–	–	–	–	–	–
Danio rerio embryo [13]	–	–	–	–	–	16.5	–	–	–	–	–	–	–	–	–	–	–	–	–	–	–	–	–	–	–
Danio rerio embryo [14]	–	–	–	–	–	–	–	–	–	–	–	–	–	–	–	–	–	–	–	–	21.5	–	–	–	–
Danio rerio embryo [15]	–	–	–	0.745	–	–	–	–	–	–	–	–	–	–	–	–	–	–	–	–	–	–	–	–	–
Danio rerio embryo [17]	–	–	–	–	4.59	–	–	–	–	–	–	–	–	–	–	–	–	–	–	–	–	–	–	–	–
Danio rerio embryo [18]	–	–	–	–	–	–	–	–	–	4.76	–	–	–	–	–	–	–	–	–	–	–	–	–	–	–
Danio rerio embryo [19]	–	–	–	–	–	–	0.889	–	–	–	–	–	–	–	–	–	–	–	–	–	–	–	–	–	–
Danio rerio embryo [20]	–	–	–	–	–	–	–	–	14.5	–	–	–	–	–	–	–	–	–	–	–	–	–	–	–	–
Danio rerio embryo [21]	–	–	–	–	–	–	–	–	–	–	–	–	–	–	–	–	8.4	–	–	–	–	–	–	–	–
Danio rerio embryo [23]	–	–	16.6	–	–	–	–	–	–	–	–	–	–	–	–	–	–	–	–	–	–	–	–	–	–
Danio rerio embryo [24]	–	–	–	–	–	–	–	–	–	–	36.3	–	–	–	–	–	–	–	–	–	–	–	–	–	–
Danio rerio embryo [25]	–	–	–	–	–	–	–	–	–	–	–	–	–	–	–	–	–	–	5.07	–	–	–	–	–	–
Danio rerio embryo [27]	–	–	–	–	–	–	–	–	–	–	–	–	–	–	–	–	–	18.7	–	–	–	–	–	–	–
Danio rerio embryo [28]	–	–	–	–	–	–	–	–	–	–	–	–	–	–	–	–	–	–	–	40.6	–	–	–	–	–
Danio rerio embryo [30]	–	–	–	–	–	–	–	–	–	–	–	–	–	–	–	–	–	–	–	–	–	–	–	–	29.2
Danio rerio embryo [31]	–	–	–	–	–	–	–	–	–	–	–	–	1.96	–	–	–	–	–	–	–	–	–	–	–	–

Conditions	EC10 Any effect [µM]	EC10 Heart rate [µM]	EC20 Any effect [µM]	EC20 Heart rate [µM]	EC50 Any effect [µM]	EC50 STC decrease [µM]	spontaneous tail coiling frequency
Danio rerio embryo [2], 0.3 µM	–	–	–	–	–	–	2.44
Danio rerio embryo [2], 3.3 µM	–	–	–	–	–	–	2.01
Danio rerio embryo [2], 13.2 µM	–	–	–	–	–	–	2.12
Danio rerio embryo [2], 16.9 µM	–	–	–	–	–	–	1.32
Danio rerio embryo [2], 19.8 µM	–	–	–	–	–	–	2.06
Danio rerio embryo [2], 29.6 µM	–	–	–	–	–	–	1.39
Danio rerio embryo [2], 33.9 µM	–	–	–	–	–	–	1.27
Danio rerio embryo [2], 44.5 µM	–	–	–	–	–	–	1.1
Danio rerio embryo [2], 66.7 µM	–	–	–	–	–	–	1.79
Danio rerio embryo [2], 67.8 µM	–	–	–	–	–	–	1.17
Danio rerio embryo [2], 100 µM	–	–	–	–	–	–	0.43
Danio rerio embryo [2], 100.1 µM	–	–	–	–	–	–	1.13
Danio rerio embryo [2], 133.4 µM	–	–	–	–	–	–	0.28
Danio rerio embryo [2], 135.6 µM	–	–	–	–	–	–	0
Danio rerio embryo [6], exposure time: 2 dpf	30	–	–	–	–	–	–
Danio rerio embryo [6], exposure time: 4 dpf	17.5	–	–	–	–	–	–
Danio rerio embryo [16], exposure time: 2 dpf	–	–	–	79.7	–	–	–
Danio rerio embryo [16], exposure time: 4 dpf	–	–	–	19.3	–	–	–
Danio rerio embryo [22], exposure time: 2 dpf	–	–	–	–	50.5	–	–
Danio rerio embryo [22], exposure time: 4 dpf	–	–	–	–	22.1	–	–
Danio rerio embryo [22], exposure time: 25 h	–	–	–	–	–	39	–
Danio rerio embryo [26], exposure time: 2 dpf	–	–	36.4	–	–	–	–
Danio rerio embryo [26], exposure time: 4 dpf	–	–	19.1	–	–	–	–
Danio rerio embryo [29], exposure time: 2 dpf	–	39.8	–	–	–	–	–
Danio rerio embryo [29], exposure time: 4 dpf	–	9.66	–	–	–	–	–

CC(=O)Nc1ccc(O)cc1 [acetaminophen]
Danio rerio embryo [2]
Conditions	spontaneous tail coiling frequency
230 µM	2.54
470 µM	1.5
940 µM	2.42
1875 µM	2.5
1876 µM	3.01
3750 µM	3.63
6250 µM	3.44
7500 µM	1.69
15000 µM	0
